Results from patent US10875876B2, “Cyclized sulfamoylarylamide derivatives and the use thereof as medicaments for the treatment of hepatitis B” (priority 2015, dated 2020).
Where two headings read alike, the source gives them in different places.

What was measured:
[1] = system: HBV; assay: anti HBV activity, HepG2.117 cell line, intracellular HBV DNA by realtime PCR; format: cell-based
Experimental: The anti HBV activity was measured using the HepG2.117 cell line, a stable, inducibly HBV producing cell line, which replicates HBV in the absence of doxicycline (Tet-off system). For the antiviral assay, HBV replication was induced, followed by a treatment with serially diluted compound in 96-well plates in duplicate. After 3 days of treatment, the antiviral activity was determined by quantification of intracellular HBV DNA using realtime PCR and an HBV specific primer set and probe.

[2] = Cytotoxicity in HepG2 cells, Resazurin assay; conditions: human, HepG2 cells, TOX-HepG2-4 d CC50 (μM), HepG2 cells incubated for 4 days, viability by Resazurin assay
[3] = HepG2.117 cell line (Tet-off), 3 days of treatment, intracellular HBV DNA quantified by realtime PCR, read-out: HBV-AVE-HepG2.117 EC50
[4] = Hepatitis B virus, HepG2.117, 72 h, HepG2.117 cell line (Tet-off), 3 days of treatment, intracellular HBV DNA quantified by realtime PCR, read-out: HBV-AVE-HepG2.117 EC50

Row | Structure (SMILES) | EC50 [1, 3] [µM] | CC50 at 4 days [2] [µM] | EC50 [1, 4] [µM] | EC50 ([1]; Hepatitis B virus, HepG2.117, 72 h, read-out: HBV-AVE-HepG2.117 EC50 (μM)) [µM]
1 | CC1CCc2c(cn(C)c2C(=O)Nc2ccc(F)c(F)c2)S(=O)(=O)N1 (single isomer, unassigned) [Compound 10a, N-(3,4-difluorophenyl)-3,7-dimethyl-1,1-dioxo-2,3,4,5-tetrahydropyrrolo[3,4-f]thiazepine-6-carboxamide] | 0.22 | > 25 | – | –
2 | Cn1cc2c(c1C(=O)Nc1ccc(F)c(F)c1)C=CC1(COC1)NS2(=O)=O [Compound 132, N-(3,4-difluorophenyl)-7-methyl-1,1-dioxo-spiro[2H-pyrrolo[3,4-f]-thiazepine-3,3′-oxetane]-6-carboxamide] | – | > 25 | 0.019 | –
3 | Cc1cc(C2(C)COc3c(cn(C)c3C(=O)Nc3ccc(F)c(C(F)F)c3)S(=O)(=O)N2)no1 (racemic) [Compound 181, N-[3-(difluoromethyl)-4-fluoro-phenyl]-3,7-dimethyl-3-(5-methylisoxazol-3-yl)-1,1-dioxo-2,4-dihydropyrrolo[3,4-b][1,4,5]oxathiazepine-6-carboxamide] | – | > 25 | 0.008 | –
4 | Cc1cc(NC(=O)c2c3c(cn2C)S(=O)(=O)N[C@@H](C)CC3)ccc1F (single isomer, unassigned) [Compound 41, (3*S)—N-(4-fluoro-3-methyl-phenyl)-3,7-dimethyl-1,1-dioxo-2,3,4,5-tetrahydropyrrolo[3,4-f]thiazepine-6-carboxamide] | – | > 25 | 0.008 | –
5 | Cn1cc2c(c1C(=O)Nc1ccc(F)c(C#N)c1)CCC(C(C)(O)C(F)(F)F)NS2(=O)=O (stereo not drawn) [Compound 117, N-(3-cyano-4-fluoro-phenyl)-7-methyl-1,1-dioxo-3-(2,2,2-trifluoro-1-hydroxy-1-methyl-ethyl)-2,3,4,5-tetrahydropyrrolo[3,4-f]thiazepine-6-carboxamide] | – | > 25 | 0.01 | –
6 | Cn1cc2c(c1C(=O)Nc1ccc(F)c(F)c1)OC[C@@H](c1ccccc1)NS2(=O)=O [Compound 25, (3R)—N-(3,4-difluorophenyl)-7-methyl-1,1-dioxo-3-phenyl-3,4-dihydro-2H-pyrrolo[3,4-b][1,4,5]oxathiazepine-6-carboxamide] | – | > 25 | 0.022 | –
7 | Cn1cc2c(c1C(=O)Nc1ccc(F)c(F)c1)OC[C@@H](C(F)(F)F)NS2(=O)=O [Compound 61, (3S)—N-(3,4-difluorophenyl)-7-methyl-1,1-dioxo-3-(trifluoromethyl)-3,4-dihydro-2H-pyrrolo[3,4-b][1,4,5]oxathiazepine-6-carboxamide] | – | > 25 | 0.074 | –
8 | Cn1cc2c(c1C(=O)Nc1ccc(F)c(F)c1)OC[C@@H](C(O)C1CC1)NS2(=O)=O (single isomer, unassigned) [Compound 92a] | 0.031 | > 24 | – | –
9 | Cn1cc2c(c1C(=O)Nc1ccc(F)c(F)c1)OC[C@@H](C(O)C(F)(F)F)NS2(=O)=O (stereo partly drawn) [Compound 123, (3S)—N-(3,4-difluorophenyl)-7-methyl-1,1-dioxo-3-(2,2,2-trifluoro-1-hydroxy-ethyl)-3,4-dihydro-2H-pyrrolo[3,4-b][1,4,5]oxathiazepine-6-carboxamide] | – | > 25 | 0.019 | –
10 | CN1CCC(C2COc3c(cn(C)c3C(=O)Nc3ccc(F)c(F)c3)S(=O)(=O)N2)CC1 (stereo not drawn) [Compound 76, N-(3,4-difluorophenyl)-7-methyl-3-(1-methyl-4-piperidyl)-1,1-dioxo-3,4-dihydro-2H-pyrrolo[3,4-b][1,4,5]oxathiazepine-6-carboxamide] | – | > 25 | 0.22 | –
11 | Cc1cc(NC(=O)c2c3c(cn2C)S(=O)(=O)N[C@@H](Cc2cccnc2)CO3)ccc1F [Compound 74, (3S)—N-(4-fluoro-3-methyl-phenyl)-7-methyl-1,1-dioxo-3-(3-pyridylmethyl)-3,4-dihydro-2H-pyrrolo[3,4-b][1,4,5]oxathiazepine-6-carboxamide] | – | > 25 | 0.052 | –
12 | C[C@H]1CCc2c(cn(C)c2C(=O)Nc2ccc(F)c(C#N)c2)S(=O)(=O)N1 (single isomer, unassigned) [Compound 56, (3*S)—N-(3-cyano-4-fluoro-phenyl)-3,7-dimethyl-1,1-dioxo-2,3,4,5-tetrahydropyrrolo[3,4-f]thiazepine-6-carboxamide] | – | > 25 | 0.01 | –
13 | Cn1ccc(C2(C)COc3c(cn(C)c3C(=O)Nc3ccc(F)c(F)c3)S(=O)(=O)N2)n1 (racemic) [Compound 192, N-(3,4-difluorophenyl)-3,7-dimethyl-3-(1-methylpyrazol-3-yl)-1,1-dioxo-2,4-dihydropyrrolo[3,4-b][1,4,5]oxathiazepine-6-carboxamide] | – | > 25 | 0.056 | –
14 | C[C@@H]1Oc2c(cn(C)c2C(=O)Nc2ccc(F)c(C(F)F)c2)S(=O)(=O)N[C@@H]1CO [compound 234] | – | > 25 | > 0.5 | –
15 | CN(C)CC1COc2c(cn(C)c2C(=O)Nc2ccc(F)c(F)c2)S(=O)(=O)N1 (stereo not drawn) [Compound 110, N-(3,4-difluorophenyl)-3-(dimethylaminomethyl)-7-methyl-1,1-dioxo-3,4-dihydro-2H-pyrrolo[3,4-b][1,4,5]oxathiazepine-6-carboxamide] | – | > 25 | 0.2 | –
16 | C[C@H](O)[C@H]1C=Cc2c(cn(C)c2C(=O)Nc2ccc(F)c(F)c2)S(=O)(=O)N1 [Compound 84, (3R)—N-(3,4-difluorophenyl)-3-[(1S)-1-hydroxyethyl]-7-methyl-1,1-dioxo-2,3-dihydropyrrolo[3,4-f]thiazepine-6-carboxamide] | – | > 25 | 0.01 | –
17 | C[C@H]1C=Cc2c(cn(C)c2C(=O)Nc2ccc(F)c(C(F)F)c2)S(=O)(=O)N1 (single isomer, unassigned) [Compound 51, (3*S)—N-[3-(difluoromethyl)-4-fluoro-phenyl]-3,7-dimethyl-1,1-dioxo-2,3-dihydropyrrolo[3,4-f]thiazepine-6-carboxamide] | – | > 25 | < 0.002 | –
18 | Cc1cccc(CC2(C)COc3c(cn(C)c3C(=O)Nc3ccc(F)c(F)c3)S(=O)(=O)N2)n1 (single isomer, unassigned) [Compound 172a, N-(3,4-difluorophenyl)-3,7-dimethyl-3-[(6-methyl-2-pyridyl)methyl]-1,1-dioxo-2,4-dihydropyrrolo[3,4-b][1,4,5]oxathiazepine-6-carboxamide] | – | > 25 | 0.072 | –
19 | Cn1cc2c(c1C(=O)Nc1ccc(F)c(C#N)c1)CCC(C(C)(C)O)NS2(=O)=O (single isomer, unassigned) [Compound 116a, N-(3-cyano-4-fluoro-phenyl)-3-(1-hydroxy-1-methyl-ethyl)-7-methyl-1,1-dioxo-2,3,4,5-tetrahydropyrrolo[3,4-f]thiazepine-6-carboxamide] | 0.022 | > 25 | – | –
20 | CC(C)N1CCc2c(cn(C)c2C(=O)Nc2ccc(F)c(F)c2)S1(=O)=O [Compound 16, N-(3,4-difluorophenyl)-2-isopropyl-6-methyl-1,1-dioxo-3,4-dihydropyrrolo[3,4-e]thiazine-5-carboxamide] | – | > 25 | 0.23 | –
21 | Cn1cc2c(c1C(=O)Nc1ccc(F)c(F)c1)OCC1(CC1)NS2(=O)=O [Compound 19, N-(3,4-difluorophenyl)-7-methyl-1,1-dioxo-spiro[2,4-dihydropyrrolo-[3,4-b][1,4,5]oxathiazepine-3,1′-cyclopropane]-6-carboxamide] | – | > 25 | 0.19 | –
22 | Cc1cc(NC(=O)c2c3c(cn2C)S(=O)(=O)N[C@@H]([C@H](C)O)C=C3)ccc1F [Compound 99, (3R)—N-(4-fluoro-3-methyl-phenyl)-3-[(1S)-1-hydroxyethyl]-7-methyl-1,1-dioxo-2,3-dihydropyrrolo[3,4-f]thiazepine-6-carboxamide] | – | > 25 | 0.004 | –
23 | C[C@@H]1Oc2c(cn(C)c2C(=O)Nc2ccc(F)c(F)c2)S(=O)(=O)N[C@@H]1C [compound 230] | – | > 25 | > 0.5 | –
24 | CC#CCC1COc2c(cn(C)c2C(=O)Nc2ccc(F)c(F)c2)S(=O)(=O)N1 (stereo not drawn) [Compound 205, 3-but-2-ynyl-N-(3,4-difluorophenyl)-7-methyl-1,1-dioxo-3,4-dihydro-2H-pyrrolo[3,4-b][1,4,5]oxathiazepine-6-carboxamide] | – | > 25 | – | 0.05
25 | Cn1cc2c(c1C(=O)Nc1ccc(F)c(F)c1)C=CC(C)(Cc1ccc(Cl)nc1)NS2(=O)=O (stereo not drawn) [Compound 219, 3-[(6-chloro-3-pyridyl)methyl]-N-(3,4-difluorophenyl)-3,7-dimethyl-1,1-dioxo-2H-pyrrolo[3,4-f]thiazepine-6-carboxamide] | – | > 25 | – | –
26 | Cc1cccc(C2(C)COc3c(cn(C)c3C(=O)Nc3ccc(F)c(C(F)F)c3)S(=O)(=O)N2)n1 (single isomer, unassigned) [Compound 177a, N-[3-(difluoromethyl)-4-fluoro-phenyl]-3,7-dimethyl-3-(6-methyl-2-pyridyl)-1,1-dioxo-2,4-dihydropyrrolo[3,4-b][1,4,5]oxathiazepine-6-carboxamide] | – | > 25 | – | –
27 | Cc1cc(CC2(C)COc3c(cn(C)c3C(=O)Nc3cc(F)c(F)c(F)c3)S(=O)(=O)N2)no1 (single isomer, unassigned) [Compound 170a, 3,7-dimethyl-3-[(5-methylisoxazol-3-yl)methyl]-1,1-dioxo-N-(3,4,5-trifluorophenyl)-2,4-dihydropyrrolo[3,4-b][1,4,5]oxathiazepine-6-carboxamide] | – | > 25 | – | –
